Assay results as given in patent US20220153766A1, “CONDENSED TRICYCLIC COMPOUND USED AS KINASE INHIBITOR” (Hangzhou Innogate Pharma Co., Ltd., priority 2019, published 2022).

Assays:
EGFR (T790M/L858R/C797S) = EGFR (T790M/L858R/C797S) (Homo sapiens, UniProt P00533, C797S/L858R/T790M); test: EGFR (T790M/L858R/C797S) kinase activity inhibition, Caliper mobility shift assay; type: biochemical; conditions: kinase 2.5 nM, ATP 40 μM
Method: The basic method is the same as ALK activity test method 2. The test concentration of the compound starts at 2 μM, and is diluted 5 folds into 6 (7 for individual compounds) concentration points. […] Add 30 μL of stop solution containing EDTA to stop the kinase reaction. Use Caliper EZ Reader to read the conversion rate. Inhibition rate %=(Average positive control conversion rate %−Sample conversion rate %/(Average positive control conversion rate %−Average negative control conversion rate %). Among them: negative control wells represent the conversion rate readings without enzyme activity; positive control wells represent the conversion rate readings of wells without compound inhibition. Take the log value of the concentration as the X-axis, and the percentage inhibition rate on the Y-axis. Log (inhibitor) vs. response—Variable slope of analysis software GraphPad Prism 5 was used to fit the curve to obtain the IC50 value of each compound on the enzyme activity. Calculation formula: Y=Bottom+(Top−Bottom)/(1+10^((Log IC50−X)*HillSlope)).

MAP4K1 (HPK1) = MAP4K1 (HPK1) (Homo sapiens, UniProt Q92918); test: MAP4K1 (HPK1) kinase activity inhibition, Caliper mobility shift assay; type: biochemical; conditions: kinase 1.25 nM, ATP 10.1 μM
Method: 4. MAP4K1 (HPK1) Kinase Activity Inhibition Experiment: Caliper mobility shift assay was used to detect the inhibitory effect of the compound on MAP4K1 (HPK1) kinase activity. The test concentration of the compound starts at 500 nM, and is diluted 5 folds into 5 concentration points. Use a dispenser Echo 550 to transfer 250 nL 100-fold final concentration of the compound to the target plate 3573, add 10 μL of MAP4K1 (HPK1) kinase solution with a final concentration of 1.25 nM, and incubate for 10 minutes at room temperature (the negative control well contains 10 μL kinase buffer and 250 nL 100% DMSO; the positive control well contains 10 μL kinase solution and 250 nL 100% DMSO). On the kinase MAP4K1 (HPK1), add 15 μL of ATP with a final concentration of 10.1 μM and 3 μM substrate peptide No. 25 mixed solution to react for 120 minutes. Add 30 μL of stop solution containing EDTA to stop the kinase reaction. Use Caliper EZ Reader to read the conversion rate. Inhibition rate %=(Average positive control conversion rate %−Sample conversion rate %/(Average positive control conversion rate %−Average negative control conversion rate %). Among them: negative control wells represent the conversion rate readings without enzyme activity; positive control wells represent the conversion rate readings of wells without compound inhibition. Take the log value of the concentration as the X-axis, and the percentage inhibition rate on the Y-axis. Log (inhibitor) vs. response—Variable slope of analysis software GraphPad Prism 5 was used to fit the curve to obtain the IC50 value of each compound on the enzyme activity. Calculation formula: Y=Bottom+(Top−Bottom)/(1+10 ^((Log IC50−X)*HillSlope)).

[1] = target: T1, Ba/F3_EGFR del19/T790M/C797S cells (Homo sapiens, UniProt P00533, T790M/C797S, cells depend on it, form not given); test: Ba/F3_EGFR (del19-T790M-C797S) cell proliferation inhibition, CTG, method 2; type: cell-based; conditions: 2000 cells/well, 72 h, read-out: Ba/F3_EGFR (del19-T790M-C797S) cell proliferation inhibition (IC50 value) Method 2
Method: Take a small amount of cells and count them with ViCell. 2) Adjust the cell density, inoculate the cells in a 384-well plate at 2000/well, and incubate in a 37° C., 5% CO2 incubator for 4 hours. 3) Set up the program of Tecan HP D300, add the compound to the well plate. The maximum initial concentration of the compound is 1-4 μM, 3 folds dilution, 9 concentrations, and the DMSO content in each well is unified to 0.2%.
CTG method detection: 1) Take out the CTG reagent and cell plate and equilibrate at room temperature for 30 min, add 25 μL CTG to each well, shake at medium speed for 2 min, centrifuge at 1000 rpm for 1 minutes, and stand still at room temperature for 10 minutes. 2) Envision instrument reads the chemiluminescence signal value.
Data analysis: IC50 results are analyzed by IDBS's XL-fit 5.0 software.

[2] = Pharmacokinetic study in rats after intragastrical administration; type: in vivo; conditions: male, rat, plasma, po, SD rats, 3 mg/kg; for AUC(0-t): read-out: AUC0-24 h
Method: Example 55: Pharmacokinetic Study in Rats
Instruments: XEVO TQ-S LC/MS instrument produced by Waters. All measurement data is collected and processed by Masslynx V4.1 software, and the data is calculated and processed by Microsoft Excel. Using WinNonLin 8.0 software, the statistical moment method was used to calculate the pharmacokinetic parameters. Mainly include kinetic parameters Tmax, T1/2, Cmax, AUClast etc. […] Injection volume: 5 μL.
Animals: 3 male SD rats with a weight range of 200-220 g. After purchase, they will be kept in the laboratory of the Experimental Animal Center for 2 days and then used. They will be fasted for 12 hours predose and 4 hours after dosing. Drinking water is free during the test. After the rats were gavage, blood samples were taken according to the established time point.
Solvent: 0.5% Methylcellulose (aqueous solution containing 0.4% Tween 80 and 1% ethanol). Preparation of the solution for intragastrical administration: accurately weigh the compound, add it to the solvent, and ultrasonically at room temperature for 5 minutes to completely dissolve the drug, and prepare a 0.3 mg/ml medicinal solution.
Pharmaceutical samples: representative compounds of the structure shown in the patented formula (I) of the present invention, generally, multiple samples with similar structures (with a molecular weight difference of more than 2 units) are taken, accurately weighed, and administered together (cassette PK). In this way, multiple compounds can be screened at the same time and their oral absorption rates can be compared. A single administration was also used to study the pharmacokinetics of the drug sample in rats.
After intragastrical administration, blood was taken from the orbit at 0.25, 0.5, 1, 2, 4, 9, 12 and 24 hours, and placed in a plastic centrifuge tube pretreated with sodium heparin. After centrifugation, the supernatant plasma was used for LC-MS/MS analysis.
Accurately weigh the compounds to prepare different concentrations, perform quantitative analysis on mass spectrometry to establish a standard curve, and then test the concentration of the above-mentioned compound in the plasma to obtain the compound concentration at different time points. All measurement data are collected and processed by relevant software, and the statistical moment method is used to calculate the pharmacokinetic parameters (mainly including kinetic parameters Tmax, T1/2, Cmax, AUClast etc). The results are as follows:
Table 7: Pharmacokinetic Parameters of the Compounds after Intragastrical Administration in SD Rats

[3] = target: T1, Ba/F3_EGFR del19/T790M/C797S cells; test: Ba/F3_EGFR (del19-T790M-C797S) cell proliferation inhibition, CTG, method 1; type: cell-based; conditions: 700 cells/well, 72 h, read-out: Ba/F3_EGFR (del19-T790M-C797S) cell proliferation inhibition (IC50 value) Method 1
Method: The cells were cultured in a 37° C., 5% CO2 incubator.
Cell plating and compound treatment: 1) Cells are routinely cultured until the cell saturation is 80%-90%, and when the number reaches the requirement, the cells are collected. 2) Resuspend in the corresponding fresh medium, take a small amount of cells to count, and prepare a cell suspension with a suitable density. 3) Inoculate the cell suspension into a 384-well plate at 700 cells/well, 30 μL per well. 4) Use Echo to add the compound to the corresponding cell well. The maximum starting concentration of the compound is 1-10 μM, 3 folds dilution, 8 concentrations.
CTG method detection: 1) Add 30 μL of CTG reagent (CelltiterGlo kit) to each well, and let it stand for 30 minutes at 37° C. and 5% CO2 in the dark. 2) Use Envision instrument to read the chemiluminescence signal value.
Data analysis: IC50 results are analyzed by GraphPad Prism 6 software. […] X: log value of compound concentration; Y: inhibition rate (% inhibition); inhibition rate (% inhibition)=(blank control well reading−compound well reading)/(blank control well reading−positive control reading)×100.

ALK = ALK (Homo sapiens, UniProt Q9UM73); test: ALK kinase activity inhibition, Caliper mobility shift assay, method 2; type: biochemical; conditions: ALK 1.25 nM, ATP 30 μM
Method: 2. ALK Kinase Activity Inhibition Experiment:
Method 2: Caliper mobility shift assay was used to measure ALK protein kinase activity. The method is basically the same as method 1, with individual parameters adjusted. The initial concentration of the compound is 1 mM, and sequentially diluted 4-fold to make 6 points (7 points for some individual compounds). Use a dispenser Echo 550 to transfer 250 nL of 100-fold final concentration of the compound to the target plate 3573, add 10 μL ALK with final concentration of 1.25 nM, incubate at room temperature for 10 minutes (the negative control well contains 10 μL kinase buffer and 250 nL 100% DMSO; the positive control well contains 10 μL kinase solution and 250 nL 100% DMSO). On the kinase ALK, add 15 μL of ATP with a final concentration of 30 μM and 3 μM of the substrate peptide No. 22 mixed solution to react for 25 minutes; add 30 μL of stop detection solution containing EDTA to stop the kinase reaction. Use Caliper EZ Reader to read the conversion rate. Inhibition rate %=(Average positive control conversion rate %−Sample conversion rate %/(Average positive control conversion rate %−Average negative control conversion rate %). Among them: negative control wells represent the conversion rate readings without enzyme activity; positive control wells represent the conversion rate readings of wells without compound inhibition. Take the log value of the concentration as the X-axis, and the percentage inhibition rate on the Y-axis. Log (inhibitor) vs. response—Variable slope of analysis software GraphPad Prism 5 was used to fit the curve to obtain the IC50 value of each compound on the enzyme activity. Calculation formula: Y=Bottom+(Top−Bottom)/(1+10^((Log IC50−X)*HillSlope)).

Sequence of ALK (Q9UM73 19-1620): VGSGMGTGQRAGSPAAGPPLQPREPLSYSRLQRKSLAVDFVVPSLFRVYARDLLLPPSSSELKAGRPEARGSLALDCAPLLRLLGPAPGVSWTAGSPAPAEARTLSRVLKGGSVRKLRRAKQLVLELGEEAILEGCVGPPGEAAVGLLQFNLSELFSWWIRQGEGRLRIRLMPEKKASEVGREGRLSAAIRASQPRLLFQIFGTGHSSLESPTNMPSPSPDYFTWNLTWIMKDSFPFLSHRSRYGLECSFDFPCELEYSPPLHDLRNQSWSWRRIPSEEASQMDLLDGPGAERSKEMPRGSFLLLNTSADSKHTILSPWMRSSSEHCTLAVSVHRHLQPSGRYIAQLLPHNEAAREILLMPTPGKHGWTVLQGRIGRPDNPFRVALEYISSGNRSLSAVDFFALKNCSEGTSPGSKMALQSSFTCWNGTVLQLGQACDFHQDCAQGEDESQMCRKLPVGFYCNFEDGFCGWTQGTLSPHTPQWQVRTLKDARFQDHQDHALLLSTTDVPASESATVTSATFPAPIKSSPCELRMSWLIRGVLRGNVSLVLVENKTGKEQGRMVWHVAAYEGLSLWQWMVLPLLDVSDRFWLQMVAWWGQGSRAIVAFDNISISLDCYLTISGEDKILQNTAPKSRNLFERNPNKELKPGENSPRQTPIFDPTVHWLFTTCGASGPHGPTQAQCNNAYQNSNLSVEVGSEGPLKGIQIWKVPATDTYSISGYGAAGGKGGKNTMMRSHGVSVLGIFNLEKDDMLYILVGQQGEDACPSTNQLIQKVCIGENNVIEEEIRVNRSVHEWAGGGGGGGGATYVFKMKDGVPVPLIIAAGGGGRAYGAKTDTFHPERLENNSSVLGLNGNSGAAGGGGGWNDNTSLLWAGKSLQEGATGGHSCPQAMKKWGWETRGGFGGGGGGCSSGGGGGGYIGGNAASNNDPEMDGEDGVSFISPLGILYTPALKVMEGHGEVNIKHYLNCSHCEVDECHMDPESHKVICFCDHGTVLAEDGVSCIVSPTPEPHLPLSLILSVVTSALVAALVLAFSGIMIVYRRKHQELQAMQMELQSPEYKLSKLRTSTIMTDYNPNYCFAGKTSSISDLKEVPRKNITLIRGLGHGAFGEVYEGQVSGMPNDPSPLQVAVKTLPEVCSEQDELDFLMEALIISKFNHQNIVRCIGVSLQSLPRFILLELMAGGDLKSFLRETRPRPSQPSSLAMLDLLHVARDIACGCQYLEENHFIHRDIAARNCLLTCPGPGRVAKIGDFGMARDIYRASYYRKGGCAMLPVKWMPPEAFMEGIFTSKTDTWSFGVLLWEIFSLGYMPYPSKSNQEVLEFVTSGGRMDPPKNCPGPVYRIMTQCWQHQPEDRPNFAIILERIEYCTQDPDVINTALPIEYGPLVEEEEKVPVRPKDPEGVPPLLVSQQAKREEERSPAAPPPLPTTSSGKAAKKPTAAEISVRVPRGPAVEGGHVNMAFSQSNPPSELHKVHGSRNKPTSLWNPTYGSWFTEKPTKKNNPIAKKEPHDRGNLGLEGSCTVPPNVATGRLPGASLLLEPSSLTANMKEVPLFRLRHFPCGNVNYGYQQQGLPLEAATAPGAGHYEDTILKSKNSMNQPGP
T1 sequence (P00533 with tags, fused parts or gaps DEL746-750/T790M/C797S, form open): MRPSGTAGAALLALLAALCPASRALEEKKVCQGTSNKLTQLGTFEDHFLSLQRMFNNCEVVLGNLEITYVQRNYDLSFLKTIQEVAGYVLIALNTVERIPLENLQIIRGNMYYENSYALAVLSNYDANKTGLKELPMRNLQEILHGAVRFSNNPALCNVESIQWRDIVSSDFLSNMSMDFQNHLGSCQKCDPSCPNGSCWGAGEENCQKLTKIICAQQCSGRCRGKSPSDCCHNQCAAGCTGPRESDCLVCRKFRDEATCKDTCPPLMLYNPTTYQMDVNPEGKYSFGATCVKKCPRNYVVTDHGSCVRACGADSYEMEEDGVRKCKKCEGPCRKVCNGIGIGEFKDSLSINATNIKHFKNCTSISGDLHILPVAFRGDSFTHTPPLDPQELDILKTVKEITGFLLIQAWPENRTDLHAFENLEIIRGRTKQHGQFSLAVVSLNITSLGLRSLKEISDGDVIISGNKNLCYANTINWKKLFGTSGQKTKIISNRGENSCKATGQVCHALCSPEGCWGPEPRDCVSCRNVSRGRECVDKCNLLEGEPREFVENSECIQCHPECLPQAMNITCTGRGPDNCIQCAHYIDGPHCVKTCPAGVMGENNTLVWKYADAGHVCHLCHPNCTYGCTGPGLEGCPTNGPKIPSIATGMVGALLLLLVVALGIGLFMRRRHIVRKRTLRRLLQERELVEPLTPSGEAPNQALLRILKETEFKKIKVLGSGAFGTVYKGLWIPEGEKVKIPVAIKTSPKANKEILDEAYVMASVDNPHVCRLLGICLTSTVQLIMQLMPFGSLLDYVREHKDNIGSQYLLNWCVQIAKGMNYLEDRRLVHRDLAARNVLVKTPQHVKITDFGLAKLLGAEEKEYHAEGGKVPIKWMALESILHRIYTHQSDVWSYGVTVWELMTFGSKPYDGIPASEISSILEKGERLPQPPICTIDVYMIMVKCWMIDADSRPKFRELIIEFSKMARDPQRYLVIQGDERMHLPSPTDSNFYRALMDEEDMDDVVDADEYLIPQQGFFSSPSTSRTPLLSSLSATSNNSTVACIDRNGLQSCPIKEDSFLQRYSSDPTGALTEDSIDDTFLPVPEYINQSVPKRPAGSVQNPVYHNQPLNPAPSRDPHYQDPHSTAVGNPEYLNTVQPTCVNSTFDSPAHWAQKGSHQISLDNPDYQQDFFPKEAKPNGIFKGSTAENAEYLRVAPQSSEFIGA
Sequence of EGFR (T790M/L858R/C797S) (P00533 25-1210 T790M/C797S/L858R): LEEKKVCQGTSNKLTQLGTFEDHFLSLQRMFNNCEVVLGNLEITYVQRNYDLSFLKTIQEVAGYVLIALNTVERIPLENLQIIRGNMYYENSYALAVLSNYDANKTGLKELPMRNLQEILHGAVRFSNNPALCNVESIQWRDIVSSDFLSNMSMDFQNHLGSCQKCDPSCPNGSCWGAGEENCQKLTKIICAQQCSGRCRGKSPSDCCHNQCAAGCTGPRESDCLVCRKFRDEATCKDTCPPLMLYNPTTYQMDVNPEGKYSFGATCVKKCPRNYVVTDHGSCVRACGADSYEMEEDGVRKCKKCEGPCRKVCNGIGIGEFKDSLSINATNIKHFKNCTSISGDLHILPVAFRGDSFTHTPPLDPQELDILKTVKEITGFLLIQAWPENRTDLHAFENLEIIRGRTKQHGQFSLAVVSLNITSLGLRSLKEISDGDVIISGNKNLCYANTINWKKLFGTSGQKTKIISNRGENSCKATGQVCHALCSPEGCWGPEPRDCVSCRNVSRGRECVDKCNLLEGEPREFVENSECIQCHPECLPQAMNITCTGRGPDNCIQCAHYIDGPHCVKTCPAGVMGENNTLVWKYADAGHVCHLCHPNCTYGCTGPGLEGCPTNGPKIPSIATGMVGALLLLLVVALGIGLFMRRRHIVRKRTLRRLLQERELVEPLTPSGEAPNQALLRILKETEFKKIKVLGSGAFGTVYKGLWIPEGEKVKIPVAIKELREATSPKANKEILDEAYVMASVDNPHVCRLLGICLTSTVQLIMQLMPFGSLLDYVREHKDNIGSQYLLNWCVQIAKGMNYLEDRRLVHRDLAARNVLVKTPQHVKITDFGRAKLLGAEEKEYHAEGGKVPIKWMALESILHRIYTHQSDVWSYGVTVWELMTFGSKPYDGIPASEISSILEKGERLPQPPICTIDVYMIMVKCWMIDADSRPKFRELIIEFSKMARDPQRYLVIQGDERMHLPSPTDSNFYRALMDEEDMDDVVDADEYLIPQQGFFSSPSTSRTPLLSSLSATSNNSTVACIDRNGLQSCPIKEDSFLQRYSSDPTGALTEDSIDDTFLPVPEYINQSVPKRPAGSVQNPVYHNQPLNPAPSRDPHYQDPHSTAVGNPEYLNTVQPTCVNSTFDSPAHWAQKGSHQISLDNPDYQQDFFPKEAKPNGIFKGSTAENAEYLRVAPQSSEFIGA
Sequence of MAP4K1 (HPK1) (Q92918 whole entry): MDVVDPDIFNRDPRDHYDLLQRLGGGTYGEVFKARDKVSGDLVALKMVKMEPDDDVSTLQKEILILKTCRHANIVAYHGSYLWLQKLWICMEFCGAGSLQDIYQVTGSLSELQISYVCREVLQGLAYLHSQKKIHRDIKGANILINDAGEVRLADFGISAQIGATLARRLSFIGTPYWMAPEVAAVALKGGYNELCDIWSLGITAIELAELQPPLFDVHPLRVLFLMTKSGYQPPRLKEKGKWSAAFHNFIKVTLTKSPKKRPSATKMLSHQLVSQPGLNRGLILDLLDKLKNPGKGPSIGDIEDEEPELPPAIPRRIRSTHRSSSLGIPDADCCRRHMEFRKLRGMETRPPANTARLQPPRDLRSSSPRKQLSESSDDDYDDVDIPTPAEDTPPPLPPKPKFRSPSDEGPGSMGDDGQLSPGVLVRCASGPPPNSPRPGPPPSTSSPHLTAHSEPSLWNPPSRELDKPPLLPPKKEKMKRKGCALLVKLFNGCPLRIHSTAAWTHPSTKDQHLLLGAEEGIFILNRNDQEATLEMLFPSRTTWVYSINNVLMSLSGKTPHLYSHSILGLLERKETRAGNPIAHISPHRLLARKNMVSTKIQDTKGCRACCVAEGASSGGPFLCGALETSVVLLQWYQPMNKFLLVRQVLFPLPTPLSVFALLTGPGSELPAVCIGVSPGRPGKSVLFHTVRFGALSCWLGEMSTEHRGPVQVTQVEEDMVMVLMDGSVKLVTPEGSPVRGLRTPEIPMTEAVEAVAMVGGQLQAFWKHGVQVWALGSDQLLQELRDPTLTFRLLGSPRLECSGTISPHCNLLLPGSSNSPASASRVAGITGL

IC50 (EGFR (T790M/L858R/C797S)) | IC50 (MAP4K1 (HPK1)) | GI50 [1] | Cmax [2] | Tmax [2] | half-life [2] | AUC(0-t) [2] | GI50 [3] | IC50 (ALK) | SMILES
< 3 nM | ≤ 1 nM | 20 to 100 nM | 160 ng/mL | 1 h | 6.27 h | 1350 ng·h/mL | – | – | Cc1cc(Nc2ncc(Cl)c(Nc3ccccc3P(C)(C)=O)n2)cc2c1N1CCN(C3CCOCC3)C[C@H]1CO2 [Compound 31S]
< 3 nM | ≤ 1 nM | – | 61.4 ng/mL | 6.33 h | 6.75 h | 585 ng·h/mL | < 20 nM | 1 to 50 nM | Cc1cc(Nc2ncc(Cl)c(Nc3ccccc3P(C)(C)=O)n2)cc2c1N1CCN(C)C[C@@H]1CO2 [Compound 25R]
< 3 nM | ≤ 1 nM | 20 to 100 nM | 78.4 ng/mL | 6.33 h | 5.18 h | 687 ng·h/mL | – | 1 to 50 nM | Cc1cc(Nc2ncc(Cl)c(Nc3ccccc3P(C)(C)=O)n2)cc2c1N1CCN(C3CCOCC3)C[C@@H]1CO2 [Compound 31R]
< 3 nM | ≤ 1 nM | 20 to 100 nM | – | – | – | – | – | 1 to 50 nM | CCN1CCC(N2CCN3c4c(C)cc(Nc5ncc(Cl)c(Nc6ccccc6P(C)(C)=O)n5)cc4OC[C@H]3C2)CC1 [Compound 30R]
3 to 15 nM | ≤ 1 nM | – | – | – | – | – | < 20 nM | 1 to 50 nM | C=CC(=O)N1CCN2c3c(C)cc(Nc4ncc(Cl)c(Nc5ccccc5P(C)(C)=O)n4)cc3OC[C@H]2C1 [Compound 26R]
< 3 nM | ≤ 1 nM | 20 to 100 nM | 306 ng/mL | 2 h | 1.95 h | 3420 ng·h/mL | – | 1 to 50 nM | CC(=O)N1CCC(N2CCN3c4c(C)cc(Nc5ncc(Cl)c(Nc6ccccc6P(C)(C)=O)n5)cc4OC[C@H]3C2)CC1 [Compound 32R]
< 3 nM | ≤ 1 nM | < 20 nM | 140 ng/mL | 10 h | 5.2 h | 2100 ng·h/mL | – | 1 to 50 nM | Cc1cc(Nc2ncc(Cl)c(Nc3ccccc3P(C)(C)=O)n2)cc2c1N1CCN(C3CCN(C)CC3)C[C@H]1CO2 [Compound 27S]
